Results reported in patent US8951986B2, “Salts of HIV inhibitor compounds” (Gilead Sciences, Inc., priority 2008, dated 2015).

Tests used:
HIV-1 IIIB = experiment: Anti-HIV-1 activity in MT-2 cells, virus-induced cytopathic effect (CellTiter-Glo); type: cell-based; conditions: MT-2 cells infected with HIV-1 IIIB, 5-day incubation; mean ± SD
Description: MT-2 cells were maintained in RPMI-1640 medium supplemented with antibiotics and 10% fetal bovine serum (FBS). MT-2 cells were infected with HIV-1 IIIB at a multiplicity of infection (moi) of 0.01 and added to 96-well plates with serial dilutions of tested compounds at a density of 20,000 cells/well. […] Activity against NRTI-resistant mutants was determined in parallel with wild-type control virus and fold change in EC50 was calculated.

HIV-1 BaL = experiment: Anti-HIV-1 activity in activated PBMC, p24 ELISA; type: cell-based; conditions: activated PBMC infected with HIV-1 BaL, 5 days, mean ± SD
Description: Activated PBMC were infected with HIV-1 BaL for 3 hours, washed, seeded into 96-well plates (250,000 cells/well) and incubated with serial dilutions of tested compounds for 5 days, at which point cell supernatants were collected and virus production was determined using commercial HIV-1 p24 ELISA (Beckman Coulter, Miami, Fla.).

Nc1ncnc2c1ncn2[C@@H]1O[C@H](OCP(=O)(O)O)C=C1F [Parent Compound]
EC50 (HIV-1 IIIB): 10.6 ± 2.4 µM
EC50 (HIV-1 BaL): 8.5 ± 7.7 µM
